This passage reports IC50 results from PMC9395968, “Pristimerin, a triterpene that inhibits monoacylglycerol lipase activity, prevents the development of paclitaxel-induced allodynia in mice” (Frontiers in Pharmacology, 2022).

Experiment [1] has as its target T1, human recombinant monoacylglycerol lipase (MAGL) (Homo sapiens, UniProt Q99685).
T1 construct: gene MGLL
T1 sequence (Q99685 1-303): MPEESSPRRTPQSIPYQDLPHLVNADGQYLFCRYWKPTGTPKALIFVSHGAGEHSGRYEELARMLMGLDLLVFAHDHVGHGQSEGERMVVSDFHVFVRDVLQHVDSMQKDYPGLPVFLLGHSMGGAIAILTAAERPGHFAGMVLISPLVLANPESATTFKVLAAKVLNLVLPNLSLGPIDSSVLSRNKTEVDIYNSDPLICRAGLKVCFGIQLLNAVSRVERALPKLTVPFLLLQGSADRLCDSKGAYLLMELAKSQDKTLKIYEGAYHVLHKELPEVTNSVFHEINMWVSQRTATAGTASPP
Description: colorimetric MAGL inhibitor screening kit (4-nitrophenyl acetate hydrolysis, […] nm). The experiment is classed as biochemical.

Experiment [2] concerns the target T2, mouse monoacylglycerol lipase (MAGL) (Mus musculus, UniProt O35678).
T2 construct: gene Mgll
T2 sequence (O35678 1-303): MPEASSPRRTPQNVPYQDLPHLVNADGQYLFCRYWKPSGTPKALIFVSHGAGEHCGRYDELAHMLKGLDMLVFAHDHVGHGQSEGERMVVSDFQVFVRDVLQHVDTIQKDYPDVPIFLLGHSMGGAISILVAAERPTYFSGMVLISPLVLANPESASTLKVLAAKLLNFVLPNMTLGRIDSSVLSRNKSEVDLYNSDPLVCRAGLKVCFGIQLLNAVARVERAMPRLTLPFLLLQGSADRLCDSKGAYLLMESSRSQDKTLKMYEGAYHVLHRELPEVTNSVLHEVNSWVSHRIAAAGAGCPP
Description: fluorometric MAGL activity assay in paw skin supernatant (brain IC50 […]). The experiment is classed as biochemical.

Regarding `COC(=O)[C@]1(C)CC[C@]2(C)CC[C@]3(C)C4=CC=C5C(=CC(=O)C(O)=C5C)[C@]4(C)CC[C@@]3(C)[C@@H]2C1` [pristimerin], the IC50 amounted to 130 nM in experiment [1] and 596 nM in experiment [2].

By IC50 is commonly meant the concentration that inhibits the measured activity by half.
